Experimental data as given in patent publication US20220288404A1, “METHODS FOR APPLYING TUMOR TREATING FIELDS IN COMBINATION WITH CANCER TREATING THERAPEUTICS” (THE BOARD OF REGENTS OF THE UNIVERSITY OF TEXAS SYSTEM, priority 2021, published 2022).

Assays:
Type in all cases: cell-based
[1] = test system: H157 cells; test: Clonogenic cell survival assay, H157 cells; details: for CI TTFields + ETOP / CI Irino + 2Gy / CI TTFields + Irino / CI TTFields + Irino + 2Gy: CI>1 synergistic
Experimental: (§1) Using certain embodiments disclosed herein, TTFields in combination with various inhibitors and/or radiation treatment (IR) were applied to NSCLC cells or pancreatic cancer cells. For example, a predetermined inhibitor at a predetermined concentration was delivered to NSCLC cells or pancreatic cancer cells, and the cells were immediately exposed to TTFields (e.g., 100-250 kHz and 1-20 V/cm v/cm) for about 24, […], or 72 hours. The predetermined concentration was a cell line specific concentration for optimal target cell killing. Then, the cells were irradiated (at a dose of 2Gy) for less than a minute (e.g., 3.25 Gy/min) and immediately plated for survival.
(§2) FIGS. 4 and 5 depict example effects of TTFields, AZD6738, radiation, and a combination thereof on non-small cell lung cancer cells (NSCLC) and pancreatic cancer cell, respectively. In particular, FIGS. 4 and 5 show TTFields exposure synergistically increases the effects of ATR inhibitor AZD6738 on NSLCL cells (FIG. 4) survival and pancreatic cancer cell (FIG. 5) survival. TTFields were used together with ATR inhibitor AZD6738 and radiation (IR). A synergistic effect was observed when AZD6738 and IR were combined with TTFields using the highest single agent (HSA) approach. The following formulas were used for calculating CI: SF=Survival Fraction; CI (TTFields)+(2Gy)=(SF2Gy×SFTTFields)/SF2Gy+TTFields; CI(TTFields)+(AZD)=(SFAZD×SFTTFields)/SFAZD+TTFields; CI (2Gy)+(AZD)=(SF2Gy×SFAZD)/SF2Gy+AZD; and CI (TTFields)+(2Gy)+(AZD)=(SF2Gy×SFAZD×SFTTFields)/SFTTFields+2Gy+AZD.
(§3) The following formulas are used for calculating the combination Index: SF=Survival Fraction; CI (TTFields)+(2Gy)=(SF2Gy×SFTTFields)/SF2Gy+TTFields; CI(TTFields)+(Irino)=(SFIrino×SFTTFields)/SFIrino+TTFields; CI (2Gy)+(Irino)=(S2Gy×SFIrino)SF2Gy+Irino; and CI (TTFields)+(2Gy)+(Irino)=(SF2Gy×SFIrino×SFTTFields)/SFTTFields+2Gy+Irino.

[2] = test system: NSCLC; test: Cell survival of NSCLC cells with CP/ETP with/without TTFields (FIG. 6); details: HSA approach
Experimental: as §1
FIG. 6 depicts example effects of TTFields, Cisplatin, Etoposide, and a combination thereof on NSCLC. […] CP and ETP were tested alone or in combination and with/without TTFields.

[3] = test system: H1299 cells; test: Clonogenic cell survival assay, H1299 cells; details: for CI TTFields + ETOP / CI Irino + 2Gy / CI TTFields + Irino / CI TTFields + Irino + 2Gy: CI>1 synergistic
Experimental: as §1, §2, §3

[4] = test system: H157 cells; test: Clonogenic cell survival assay, H157 cells; details: 48 h, CI>1 synergistic
[5] = test system: H1299 cells; test: Clonogenic cell survival assay, H1299 cells; details: 48 h, CI>1 synergistic
[6] = test system: Panc-1 cells; test: Clonogenic cell survival assay, Panc-1 cells; details: for CI Irino + 2Gy / CI TTFields + Irino / CI TTFields + Irino + 2Gy / CI 2Gy + Olap / CI TTFields + 2Gy + Olap / CI TTFields + Olap: CI>1 synergistic; for surviving fraction: agent as shown in figure
Experimental: as §1, with “killing.” for “killing. Then, the cells were irradiated (at a dose of 2Gy) for less than a minute (e.g., 3.25 Gy/min) and immediately plated for survival.”
(§4) Olaparib was given concomitant with TTFields. Radiation was given 24, 48 or 72 h after the initiation of TTFields and specific agents. […] Values greater than 1.0 are considered as synergistic, that is, greater than the sum of the individual responses. The following formulas were used for calculating CI: SF=Survival Fraction; CI (TTFields)+(2Gy)=(SF2Gy×SFTTFields)/SF2Gy+TTFields; CI(TTFields)+(Olap)=(SFOlap×SFTTFields)/SFOlap+TTFields; CI (2Gy)+(Olap)=(SF2Gy×SFOlap)/SF2Gy+Olap; and CI (TTFields)+(2Gy)+(Olap)=(SF2Gy×SFOlap×SFTTFields)/SFTTFields+2Gy+Olap. […] Based upon the Highest Single Agent […] approach. The calculation for the Combination Index can be found below.
as §2, §3

[7] = test system: 04.03 cells; test: Clonogenic cell survival assay, 04.03 cells; details: for CI 2Gy + Olap / CI TTFields + 2Gy + Olap / CI TTFields + Olap: CI>1 synergistic
Experimental: as §1, with “killing.” for “killing. Then, the cells were irradiated (at a dose of 2Gy) for less than a minute (e.g., 3.25 Gy/min) and immediately plated for survival.”
as §4, §2

Q: How did the “CI TTFields + ETOP” value ([1]; 24 h) turn out when `COc1cc([C@@H]2c3cc4c(cc3[C@@H](O[C@@H]3O[C@@H]5CO[C@@H](C)O[C@H]5[C@H](O)[C@H]3O)[C@H]3COC(=O)[C@H]23)OCO4)cc(OC)c1O` [ETOP, Etoposide] was run?
A: 0.842

Q: What about the “CI TTFields + ETOP” value ([1]; 72 h) of the same compound?
A: 1.021

Q: And the “cell killing capacity in combination with TTFields” value [2]?
A: synergistically enhanced

Q: And the “CI TTFields + ETOP” value ([3]; 24 h)?
A: 1.387

Q: And the “CI TTFields + ETOP” value ([3]; 48 h)?
A: 1.174

Q: What about the “CI TTFields + ETOP” value ([3]; 72 h) of the same compound?
A: 1.140

Q: And the “CI TTFields + ETOP” value [4]?
A: 0.995

Q: Which “effect of combinations of TTFields, agent and/or IR on cell survival” value (“effect of combinations of TTFields” for short) [1] does the source give for `CCc1c2c(nc3ccc(OC(=O)N4CCC(N5CCCCC5)CC4)cc13)-c1cc3c(c(=O)n1C2)COC(=O)[C@]3(O)CC` [Irino, Irinotecan] here?
A: synergistic effects

Q: And the “CI Irino + 2Gy” value ([1]; 24 h)?
A: 1.064

Q: And the “CI TTFields + Irino” value ([1]; 24 h)?
A: 1.483

Q: What about the “CI TTFields + Irino + 2Gy” value ([1]; 24 h) of the same compound?
A: 1.763

Q: What about the “CI Irino + 2Gy” value ([1]; 48 h) of the same compound?
A: 1.244

Q: And the “CI TTFields + Irino” value ([1]; 48 h)?
A: 1.174

Q: What about the “CI TTFields + Irino + 2Gy” value ([1]; 48 h) of the same compound?
A: 1.463

Q: And the “CI Irino + 2Gy” value ([1]; 72 h)?
A: 1.275

Q: What about the “CI TTFields + Irino” value ([1]; 72 h) of the same compound?
A: 1.136

Q: What about the “CI TTFields + Irino + 2Gy” value ([1]; 72 h) of the same compound?
A: 2.501

Q: What about the surviving fraction ([1]; agent as shown in figure) of the same compound?
A: significantly reduced

Q: And the “CI TTFields + Irino” value [5]?
A: 1.821

Q: And the “effect of combinations of TTFields” value [3]?
A: synergistic effects

Q: And the “CI Irino + 2Gy” value ([3]; 24 h)?
A: 1.244

Q: And the “CI TTFields + Irino” value ([3]; 24 h)?
A: 1.388

Q: And the “CI TTFields + Irino + 2Gy” value ([3]; 24 h)?
A: 2.365

Q: And the “CI Irino + 2Gy” value ([3]; 48 h)?
A: 1.012

Q: And the “CI TTFields + Irino + 2Gy” value ([3]; 48 h)?
A: 2.130

Q: And the “CI Irino + 2Gy” value ([3]; 72 h)?
A: 1.027

Q: What about the “CI TTFields + Irino” value ([3]; 72 h) of the same compound?
A: 2.081

Q: And the “CI TTFields + Irino + 2Gy” value ([3]; 72 h)?
A: 2.051

Q: What about the surviving fraction ([3]; agent as shown in figure) of the same compound?
A: significantly reduced

Q: What about the “effect of combinations of TTFields” value [6] of the same compound?
A: synergistic effects

Q: And the “CI Irino + 2Gy” value ([6]; 24 h)?
A: 1.022

Q: What about the “CI TTFields + Irino” value ([6]; 24 h) of the same compound?
A: 1.082

Q: What about the “CI TTFields + Irino + 2Gy” value ([6]; 24 h) of the same compound?
A: 2.360

Q: And the “CI Irino + 2Gy” value ([6]; 48 h)?
A: 1.009

Q: What about the “CI TTFields + Irino” value ([6]; 48 h) of the same compound?
A: 0.974

Q: And the “CI TTFields + Irino + 2Gy” value ([6]; 48 h)?
A: 2.335

Q: And the “CI Irino + 2Gy” value ([6]; 72 h)?
A: 1.132

Q: What about the “CI TTFields + Irino” value ([6]; 72 h) of the same compound?
A: 1.030

Q: What about the “CI TTFields + Irino + 2Gy” value ([6]; 72 h) of the same compound?
A: 4.454

Q: What about the surviving fraction [6] of the same compound?
A: significantly reduced

Q: Which results are given for `O=C(c1cc(Cc2n[nH]c(=O)c3ccccc23)ccc1F)N1CCN(C(=O)C2CC2)CC1` [Olap, Olaparib]?
A: effect of combinations of TTFields, agent and/or IR on cell survival [7]: synergistic effects; CI 2Gy + Olap ([7]; 24 h): 1.550; CI TTFields + 2Gy + Olap ([7]; 24 h): 2.863; CI TTFields + Olap ([7]; 24 h): 1.101; CI 2Gy + Olap ([7]; 48 h): 1.582; CI TTFields + 2Gy + Olap ([7]; 48 h): 2.066; CI TTFields + Olap ([7]; 48 h): 0.973; CI 2Gy + Olap ([7]; 72 h): 1.462; CI TTFields + 2Gy + Olap ([7]; 72 h): 3.818; CI TTFields + Olap ([7]; 72 h): 1.042; surviving fraction ([7]; agent as shown in figure): significantly reduced; effect of combinations of TTFields, agent and/or IR on cell survival [6]: synergistic effects; CI 2Gy + Olap ([6]; 24 h): 0.890; CI TTFields + 2Gy + Olap ([6]; 24 h): 1.589; CI TTFields + Olap ([6]; 24 h): 1.035; CI 2Gy + Olap ([6]; 48 h): 0.975; CI TTFields + 2Gy + Olap ([6]; 48 h): 1.817; CI TTFields + Olap ([6]; 48 h): 1.209; CI 2Gy + Olap ([6]; 72 h): 1.030; CI TTFields + 2Gy + Olap ([6]; 72 h): 2.028; CI TTFields + Olap ([6]; 72 h): 1.215; surviving fraction [6]: significantly reduced
